From patent US11459337B2, “Isothiazolo[5,4-D]pyrimidine compound as IRAK4 inhibitor” (priority 2018, dated 2022)
Where two headings read alike, the source gives them in different places.

Key:
[1] = In vitro metabolic stability in liver microsome, monkey; assay type: in vitro ADME; conditions: Monkey liver microsomes, 1 μM compound, 0.5 mg/mL protein
Method: (§1) Metabolic Stability in Liver Microsome The test compounds at 1 μM were co-incubated with liver microsomes having a protein concentration of 0.5 mg/mL under the action of a reductive coenzyme II regeneration system in a 37° C. water bath. • 1) Positive controls included: testosterone (3A4 substrate), propylamine propiophenone (2D6 substrate), and diclofenac (2C9 substrate). The positive controls were incubated in the same condition as the test compounds. • 2) The reaction was stopped using a stop reagent containing the internal standard at time points of 0, 5, 10, 20, 30 and 60 minutes. […] CLint^mic: intrinsic microsomal clearance;

[2] = In vitro metabolic stability in liver microsome, mouse; assay type: in vitro ADME; conditions: Mouse liver microsomes, 1 μM compound, 0.5 mg/mL protein
Method: as §1

human IRAK4 = human IRAK4 (Homo sapiens (Human), UniProt Q9NWZ3); assay: 33P-labeled kinase activity assay (Reaction Biology Corp), in vitro enzymatic activity; assay type: biochemical; conditions: 20 μM ATP, 3 nM kinase, MBP substrate
Chain of human IRAK4 (Q9NWZ3 whole entry): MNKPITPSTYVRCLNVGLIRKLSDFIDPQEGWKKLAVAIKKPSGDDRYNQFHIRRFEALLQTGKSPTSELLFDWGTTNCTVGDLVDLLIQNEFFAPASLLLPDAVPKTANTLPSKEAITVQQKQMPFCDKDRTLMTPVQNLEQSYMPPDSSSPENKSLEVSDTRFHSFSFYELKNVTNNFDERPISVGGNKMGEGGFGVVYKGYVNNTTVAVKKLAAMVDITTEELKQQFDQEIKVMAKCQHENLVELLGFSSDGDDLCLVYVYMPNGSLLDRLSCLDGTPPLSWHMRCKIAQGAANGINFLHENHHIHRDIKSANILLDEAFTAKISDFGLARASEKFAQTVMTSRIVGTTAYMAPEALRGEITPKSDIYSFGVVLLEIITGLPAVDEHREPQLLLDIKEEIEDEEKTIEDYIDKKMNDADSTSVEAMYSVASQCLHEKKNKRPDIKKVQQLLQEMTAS
Method: The inhibitory activity of the test compounds against human IRAK4 was evaluated by measuring IC50 values in a ^33P-labeled kinase activity assay (Reaction Biology Corp). Buffer conditions: 20 mM Hepes (pH 7.5), 10 mM MgCl2, 1 mM EGTA, 0.02% Brij35, 0.02 mg/mL BSA, 0.1 mM Na3VO4, 2 mM DTT, 1% DMSO. Procedures: The test compound was dissolved in DMSO at room temperature to prepare a 10 mM solution for later use. The substrate was dissolved in fresh buffer, to which the kinase was added and mixed well. The DMSO solution containing the test compound was added to the above mixed reaction system by an acoustic technique (Echo 550). The concentrations of the compounds in reaction system were 10 μM, 3.33 μM, 1.11 μM, 0.370 μM, 0.123 μM, 41.2 nM, 13.7 nM, 4.57 nM, 1.52 nM, and 0.508 nM. After 15 minutes of incubation, the reaction was started by adding ^33P-ATP (activity: 0.01 μCi/μL; the corresponding concentration is listed in Table 1). Supplier's catalog number, lot number and concentration information in the reaction system for IRAK4 and its substrate are listed in Table 1. After 120 minutes of reaction at room temperature, the resulting solution was loaded on P81 ion exchange chromatography paper sheet (Whatman #3698-915). After repeated washing with 0.75% phosphoric acid solution, the radioactivity of the phosphorylated substrate residue on the paper sheet was measured. The kinase activity data are shown as a comparison of the kinase activity of the test compound and the kinase activity of the blank (DMSO only) and a curve was fitted using Prism4 software (GraphPad) to give IC50 values, with the experimental results shown in Table 2. [table]

[3] = In vitro metabolic stability in liver microsome, human; assay type: in vitro ADME; conditions: Human liver microsomes, 1 μM compound, 0.5 mg/mL protein
Method: as §1

THP-1 cells = assay: TNF-α ELISA assay in LPS-stimulated THP-1 cells; assay type: cell-based, human; conditions: Homo sapiens, THP-1, 18 h, TNF-α in supernatant, 150 ng/mL LPS
Method: TNF-α ELISA Assay in THP-1 Cells THP-1 human acute unicellular leukemia cells were purchased from ATCC (Cat #TIB-202) and incubated in a 37° C., 5% CO2 incubator. The medium was RPMI1640 (Gibco, Cat #22400-105), the supplementary was 10% FBS (Gibco, Cat #10091148); 1% PenStrep (Gibco, Cat #15140); 0.05 mM 2-mercaptoethanol (Sigma, Cat #M6250). TNF-α content in the culture supernatant was measured by a TNF-α Elisa kit. TNF-α was produced by stimulation of THP-1 cells with 150 ng/mL LPS (Sigma, Cat #L6529). Normal THP-1 cells in logarithmic phase were inoculated in 96-well plates (Corning #3599) at a certain concentration (1×10^5/100 μL) and then incubated in an incubator. After two hours, 16.7 μL of test compound of different concentrations (8×final concentration) was added and the mixture was incubated. After one hour, 16.7 μL of 1200 ng/mL LPS was added and the mixture was incubated. After 18 hours, the culture was centrifuged and the supernatant was collected. The TNF-α content was measured by a TNF-α Elisa kit. Finally, the OD signals (OD450-OD570) were read on an envision plate reader. The OD450-OD570 signals were converted to percent inhibition. Inhibition %=(ZPE−sample)/(ZPE−HPE)×100. “HPE” represents the OD450-OD570 signal value of the control without LPS-stimulated cells, and “ZPE” represents the OD450-OD570 signal value of the control with LPS-stimulated cells. IC50 values for compounds were calculated by XLFit in the Excel. Y=Bottom+(Top−Bottom)/(1+(IC50/X)^HillSlope). Equation: […]

[4] = tested on: LPS-induced TNF-α secretion; assay: Pharmacodynamic study evaluating LPS-induced TNF-α secretion in SD rats; assay type: in vivo; conditions: for efficacy compared with dexamethasone DEX: DEX 0.5 mg/kg; for inhibitory effect on LPS-induced TNF-α secretion: LPS 1 mg/kg i.p.
Method: Pharmacodynamic Study Evaluating […] (LPS)-Induced TNF-α Secretion in SD Rats SD rats were orally administered with a solvent, dexamethasone (DEX, 0.5 mg/kg) as positive control, and the test compound, and were intraperitoneally injected with LPS (1 mg/kg) 0.5 hours after the administration Animals were euthanized with CO2 2 hours after LPS injection. Cardiac blood was collected into EDTA-K2 vacutainers, and a part of the anticoagulated blood was centrifuged and the plasma was frozen at −80° C. Frozen plasma was thawed at room temperature and the concentration of TNF-α in the plasma was measured using ELISA kit. The experimental data were expressed using mean±SEM, and TNF-α levels were analyzed by One-way ANOVA. Significant differences were considered for p<0.05.

[5] = In vitro metabolic stability in liver microsome, rat; assay type: in vitro ADME; conditions: Rat liver microsomes, 1 μM compound, 0.5 mg/mL protein
Method: as §1

[6] = Pharmacokinetic study of oral and intravenous test compounds in SD rats; assay type: in vivo; conditions: rat, plasma, SD male rats; for Vd: read-out: Apparent volume of distribution Vdss; for AUC(0-t): read-out: Area under plasma concentration-time curve AUC0-last; for clearance: read-out: Clearance CL; for half-life: read-out: Half life T1/2 (converted); for bioavailability: read-out: Bioavailability F; for Cmax: read-out: Peak concentration Cmax; for Tmax: read-out: Time to peak Tmax
Method: Pharmacokinetic Study of Oral and Intravenous Test Compounds in SD Rats The test compound was mixed with a solution containing 10% of methyl pyrrolidone, 10% of polyethylene glycol stearate and 80% of water. The mixture was vortexed and sonicated to prepare a 1.5 mg/mL clarified solution, which was then filtered through a microporous membrane for later use. SD male rats aged 7 to 10 weeks were selected and administered intravenously with a dose of the candidate compound at 3 mg/kg. The test compound was mixed with 0.5% aqueous methylcellulose solution. The mixture was vortexed and sonicated to prepare a 2 mg/mL suspension for later use. SD male rats aged 7 to 10 weeks were selected and orally administered with a dose of the candidate compound at 10 mg/kg. Whole blood was collected at certain time points, and plasma was separated. The drug concentration was measured by LC-MS/MS, and pharmacokinetic parameters were calculated using Phoenix WinNonlin software (Pharsight, USA).

[7] = In vitro metabolic stability in liver microsome, dog; assay type: in vitro ADME; conditions: Dog liver microsomes, 1 μM compound, 0.5 mg/mL protein
Method: as §1

| Compound | Re1 h % (residue of test compound at 1 hour) [1] [%] | Re1 h % (residue of test compound at 1 hour) [2] [%] | IC50 (human IRAK4) [nM] | Re1 h % (residue of test compound at 1 hour) [3] [%] | IC50 (THP-1 cells) [nM] | efficacy compared with dexamethasone DEX ([4]; FIG. 1, oral, 30 mpk) | inhibitory effect on LPS-induced TNF-α secretion ([4]; FIG. 1, oral, 30 mpk) | inhibitory effect compared with reference compounds WXR2, WXR3 and WXR4 ([4]; FIG. 1, oral, same doses (30 mpk)) | inhibitory effect on LPS-induced TNF-α secretion ([4]; FIG. 2, oral, 20 mpk) | Re1 h % (residue of test compound at 1 hour) [5] [%] | Vd ([6]; Intravenous, 3 mg/kg) [L/kg] | AUC(0-t) ([6]; Intravenous, 3 mg/kg) [µM·h] | clearance ([6]; Intravenous, 3 mg/kg) [mL/min/kg] | half-life ([6]; Intravenous, 3 mg/kg) [h] | AUC(0-t) ([6]; Oral, 10 mg/kg) [µM·h] | bioavailability ([6]; Oral, 10 mg/kg) [%] | Cmax ([6]; Oral, 10 mg/kg) [nM] | Tmax ([6]; Oral, 10 mg/kg) [h] | Re1 h % (residue of test compound at 1 hour) [7] [%] | efficacy compared with dexamethasone DEX ([4]; FIG. 2, oral, 20 mpk) |
| --- | --- | --- | --- | --- | --- | --- | --- | --- | --- | --- | --- | --- | --- | --- | --- | --- | --- | --- | --- | --- |
| Cc1nsc2nc(Nc3cnn(C4CCOCC4)c3)nc(N[C@H]3CC[C@H](N4CCOCC4)CC3)c12 [WX001] | 3.2 | 39.1 | 6.8 | 50.0 | 177 | equivalent | significant inhibitory effect | significantly superior | significant inhibitory effect | 76.6 | 4.6 | 1.75 | 57 | 1.4 | 2.05 | 35 | 397 | 2.3 | 60.5 | – |
| CC(C)c1nsc2nc(Nc3cnn(C4CCOCC4)c3)nc(N[C@H]3CC[C@H](N4CCOCC4)CC3)c12 [WX003] | – | – | 2.9 | – | 329 | – | – | – | – | – | 4.8 | 1.33 | 71.4 | 1 | 2.01 | 48 | 523 | 0.8 | – | – |
| Cc1nsc2nc(Nc3cnn(C4CCOC4)c3)nc(N[C@H]3CC[C@H](N4CCOCC4)CC3)c12 (some centres unmarked) [WX007] | – | – | 5.7 | – | 417 | – | – | – | – | – | 3.3 | 1.33 | 79 | 0.9 | 1.64 | 38 | 389 | 2 | – | – |
| Cc1nsc2nc(Nc3cnn(C4COC4)c3)nc(N[C@H]3CC[C@H](N4CCOCC4)CC3)c12 [WX009] | – | – | 21.3 | – | 649 | – | – | – | – | – | 5.7 | 1.46 | 73.3 | 1.8 | 2.69 | 58 | 540 | 2.5 | – | – |
| COC(=O)N1CCN([C@H]2CC[C@H](Nc3nc(Nc4cnn(C5CCOCC5)c4)nc4snc(C)c34)CC2)CC1 [WX026] | – | – | 2 | – | 156 | – | – | – | significant inhibitory effect | – | 4.5 | 1.77 | 50.6 | 2.2 | 1.36 | 23 | 308 | 1.5 | – | equivalent |
| COC(=O)N1C2CC1CN([C@H]1CC[C@H](Nc3nc(Nc4cnn(C5CCOCC5)c4)nc4snc(C)c34)CC1)C2 [WX044] | – | – | 40.7 | – | – | – | – | – | significant inhibitory effect | – | – | – | – | – | – | – | – | – | – | – |
| c1cc2c(N[C@H]3CC[C@H](N4CCOCC4)CC3)nc(Nc3cnn(C4CCOCC4)c3)nc2s1 [WXR1, reference compound] | 0.6 | 0.0 | – | 23.7 | – | – | – | – | – | 32.3 | – | – | – | – | – | – | – | – | 5.5 | – |
